Each compound was assayed against T1, Recombinant Human Histamine H4 Receptor (Homo sapiens, UniProt Q9H3N8) (assay: Binding Assay on Recombinant Human Histamine H4 Receptor). Conditions: competition binding with 3H-histamine, membranes of SK-N-MC or COS7 cells expressing human histamine H4 receptor; Ki by Cheng-Prusoff (KD 5 nM, ligand 5 nM); average of results obtained.
T1 construct: expressed in transfected cells; host or cells: SK-N-MC cells or COS7 cells, transiently transfected; cell membranes used
Excerpt: Additional examples of embodiments of this invention are provided by hemitartrate salts of compounds of Formula (I) and by hydrates, such as monohydrates and dihydrates, of compounds of Formula (I). […]

T1 sequence (Q9H3N8 whole entry): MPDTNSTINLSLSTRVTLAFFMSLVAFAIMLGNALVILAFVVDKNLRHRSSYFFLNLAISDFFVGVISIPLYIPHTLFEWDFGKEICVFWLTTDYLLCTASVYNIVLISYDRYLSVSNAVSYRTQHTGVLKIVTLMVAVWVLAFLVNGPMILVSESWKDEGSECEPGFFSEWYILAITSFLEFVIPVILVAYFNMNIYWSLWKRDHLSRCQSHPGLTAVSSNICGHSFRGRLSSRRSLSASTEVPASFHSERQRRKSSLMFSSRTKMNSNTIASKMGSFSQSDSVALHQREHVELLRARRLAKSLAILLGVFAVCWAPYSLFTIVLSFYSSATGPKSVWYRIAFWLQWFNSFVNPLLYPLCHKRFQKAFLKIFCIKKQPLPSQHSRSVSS

SMILES	Ki
Cc1nc(NCCCC2CCN(C)CC2)ncc1-c1nc2c(C)c(F)ccc2[nH]1 [Example 1, [5-(5-Fluoro-4-methyl-1H-benzoimidazol-2-yl)-4-methyl-pyrimidin-2-yl]-[3-(1-methyl-piperidin-4-yl)-propyl]-amine]	21 nM
Cc1cc(C)c2nc(-c3cnc(NCCCC4CCN(C)CC4)nc3C)[nH]c2c1 [Example 2, [5-(4,6-Dimethyl-1H-benzoimidazol-2-yl)-4-methyl-pyrimidin-2-yl]-[3-(1-methyl-piperidin-4-yl)-propyl]-amine]	11 nM
Cc1nc(NCCCC2CCN(C)CC2)ncc1-c1nc2c(C)cc(F)cc2[nH]1 [Example 3, [5-(6-Fluoro-4-methyl-1H-benzoimidazol-2-yl)-4-methyl-pyrimidin-2-yl]-[3-(1-methyl-piperidin-4-yl)-propyl]-amine]	4 nM
Cc1nc(NCCCC2CCN(C)CC2)ncc1-c1nc2c(F)c(F)ccc2[nH]1 [Example 4, [5-(4,5-Difluoro-1H-benzoimidazol-2-yl)-4-methyl-pyrimidin-2-yl]-[3-(1-methyl-piperidin-4-yl)-propyl]-amine]	11 nM
Cc1ccc2[nH]c(-c3cnc(NCCCC4CCN(C)CC4)nc3C)nc2c1C [Example 5, [5-(4,5-Dimethyl-1H-benzoimidazol-2-yl)-4-methyl-pyrimidin-2-yl]-[3-(1-methyl-piperidin-4-yl)-propyl]-amine]	4 nM
Cc1nc(NCCCC2CCN(C)CC2)ncc1-c1nc2c(F)cc(F)cc2[nH]1 [Example 6, [5-(4,6-Difluoro-1H-benzoimidazol-2-yl)-4-methyl-pyrimidin-2-yl]-[3-(1-methyl-piperidin-4-yl)-propyl]-amine]	17 nM
Cc1cc(C)c2nc(-c3cnc(N(C)CCCC4CCN(C)CC4)nc3C)[nH]c2c1 [Example 7, [5-(4,6-Dimethyl-1H-benzoimidazol-2-yl)-4-methyl-pyrimidin-2-yl]-methyl-[3-(1-methyl-piperidin-4-yl)-propyl]-amine]	83 nM
CCc1nc(NCCCC2CCN(C)CC2)ncc1-c1nc2c(F)c(F)ccc2[nH]1 [Example 9, [5-(4,5-Difluoro-1H-benzoimidazol-2-yl)-4-ethyl-pyrimidin-2-yl]-[3-(1-methyl-piperidin-4-yl)-propyl]-amine]	210 nM
CCCc1nc(NCCCC2CCN(C)CC2)ncc1-c1nc2c(F)c(C)ccc2[nH]1 [Example 10, [5-(4-Fluoro-5-methyl-1H-benzoimidazol-2-yl)-4-propyl-pyrimidin-2-yl]-[3-(1-methyl-piperidin-4-yl)-propyl]-amine]	470 nM
Cc1ccc2[nH]c(-c3cnc(NCCCC4CCN(C)CC4)nc3C(C)C)nc2c1C [Example 11, [5-(4,5-Dimethyl-1H-benzoimidazol-2-yl)-4-isopropyl-pyrimidin-2-yl]-[3-(1-methyl-piperidin-4-yl)-propyl]-amine]	360 nM
Cc1cc(C)c2nc(-c3cnc(NCCCC4CCN(C)CC4)nc3C(C)C)[nH]c2c1 [Example 12, [5-(4,6-Dimethyl-1H-benzoimidazol-2-yl)-4-isopropyl-pyrimidin-2-yl]-[3-(1-methyl-piperidin-4-yl)-propyl]-amine]	200 nM
Cc1ccc2[nH]c(-c3cnc(NCCCC4CCN(C)CC4)nc3C3CCC3)nc2c1C [Example 13, [4-Cyclobutyl-5-(4,5-dimethyl-1H-benzoimidazol-2-yl)-pyrimidin-2-yl]-[3-(1-methyl-piperidin-4-yl)-propyl]-amine]	430 nM
CN1CCC(CCCNc2ncc(-c3nc4c(F)c(F)ccc4[nH]3)c(C3CCC3)n2)CC1 [Example 14, [4-Cyclobutyl-5-(4,5-difluoro-1H-benzoimidazol-2-yl)-pyrimidin-2-yl]-[3-(1-methyl-piperidin-4-yl)-propyl]-amine]	1010 nM
Cc1c(F)ccc2[nH]c(-c3cnc(NCCCC4CCN(C)CC4)nc3)nc12 [Example 15, [5-(5-Fluoro-4-methyl-1H-benzoimidazol-2-yl)-pyrimidin-2-yl]-[3-(1-methyl-piperidin-4-yl)-propyl]-amine]	290 nM
Cc1c(F)ccc2[nH]c(-c3cnc(NCCCC4CCN(C)CC4)nc3C3CCC3)nc12 [Example 16, [4-Cyclobutyl-5-(5-fluoro-4-methyl-1H-benzoimidazol-2-yl)-pyrimidin-2-yl]-[3-(1-methyl-piperidin-4-yl)-propyl]-amine]	1470 nM
Cc1cc(C)c2nc(-c3cnc(NCCCC4CCN(C)CC4)nc3C3CCC3)[nH]c2c1 [Example 17, [4-Cyclobutyl-5-(4,6-dimethyl-1H-benzoimidazol-2-yl)-pyrimidin-2-yl]-[3-(1-methyl-piperidin-4-yl)-propyl]-amine]	1320 nM
CCCc1nc(NCCCC2CCN(C)CC2)ncc1-c1nc2c(C)c(C)ccc2[nH]1 [Example 18, [5-(4,5-Dimethyl-1H-benzoimidazol-2-yl)-4-propyl-pyrimidin-2-yl]-[3-(1-methyl-piperidin-4-yl)-propyl]-amine]	2410 nM

SMILES	Ki
Cc1c(F)ccc2[nH]c(-c3cnc(NCCCC4CCN(C)CC4)nc3C(C)C)nc12 [Example 20, [5-(5-Fluoro-4-methyl-1H-benzoimidazol-2-yl)-4-isopropyl-pyrimidin-2-yl]-[3-(1-methyl-piperidin-4-yl)-propyl]-amine]	230 nM
Cc1nc(NCCCC2CCN(C)CC2)ncc1-c1nc2c(C)cccc2[nH]1 [Example 21, [4-Methyl-5-(4-methyl-1H-benzoimidazol-2-yl)-pyrimidin-2-yl]-[3-(1-methyl-piperidin-4-yl)-propyl]-amine]	27 nM
Cc1nc(NCCCC2CCN(C)CC2)ncc1-c1nc2ccccc2[nH]1 [Example 22, [5-(1H-Benzoimidazol-2-yl)-4-methyl-pyrimidin-2-yl]-[3-(1-methyl-piperidin-4-yl)-propyl]-amine]	110 nM
Cc1nc(NCCCC2CCN(C)CC2)ncc1-c1nc2cc(F)ccc2[nH]1 [Example 23, [5-(5-Fluoro-1H-benzoimidazol-2-yl)-4-methyl-pyrimidin-2-yl]-[3-(1-methyl-piperidin-4-yl)-propyl]-amine]	59 nM
Cc1nc(NCCCC2CCN(C)CC2)ncc1-c1nc2cc(C(F)(F)F)ccc2[nH]1 [Example 24, [3-(1-Methyl-piperidin-4-yl)-propyl]-[4-methyl-5-(5-trifluoromethyl-1H-benzoimidazol-2-yl)-pyrimidin-2-yl]-amine]	12 nM
Cc1nc(NCCCC2CCN(C)CC2)ncc1-c1nc2cc(C(C)(C)C)ccc2[nH]1 [Example 25, [5-(5-tert-Butyl-1H-benzoimidazol-2-yl)-4-methyl-pyrimidin-2-yl]-[3-(1-methyl-piperidin-4-yl)-propyl]-amine]	13 nM
Cc1nc(NCCCC2CCN(C)CC2)ncc1-c1nc2c(C)c(Cl)ccc2[nH]1 [Example 26, [5-(5-Chloro-4-methyl-1H-benzoimidazol-2-yl)-4-methyl-pyrimidin-2-yl]-[3-(1-methyl-piperidin-4-yl)-propyl]-amine]	13 nM
Cc1c(F)ccc2[nH]c(-c3cnc(NCCCC4CCN(C)CC4)nc3C(F)(F)F)nc12 [Example 27, [5-(5-Fluoro-4-methyl-1H-benzoimidazol-2-yl)-4-trifluoromethyl-pyrimidin-2-yl]-[3-(1-methyl-piperidin-4-yl)-propyl]-amine]	92 nM
Cc1cc(F)cc2[nH]c(-c3cnc(NCCCC4CCN(C)CC4)nc3C(F)(F)F)nc12 [Example 28, [5-(6-Fluoro-4-methyl-1H-benzoimidazol-2-yl)-4-trifluoromethyl-pyrimidin-2-yl]-[3-(1-methyl-piperidin-4-yl)-propyl]-amine]	62 nM
CN1CCC(CCCNc2ncc(-c3nc4c(Cl)cc(Cl)cc4[nH]3)c(C(F)(F)F)n2)CC1 [Example 29, [5-(4,6-Dichloro-1H-benzoimidazol-2-yl)-4-trifluoromethyl-pyrimidin-2-yl]-[3-(1-methyl-piperidin-4-yl)-propyl]-amine]	35 nM
Cc1ccc2[nH]c(-c3cnc(NCCCC4CCN(C)CC4)nc3C(F)(F)F)nc2c1C [Example 30, [5-(4,5-Dimethyl-1H-benzoimidazol-2-yl)-4-trifluoromethyl-pyrimidin-2-yl]-[3-(1-methyl-piperidin-4-yl)-propyl]-amine]	230 nM
CN1CCC(CCCNc2ncc(-c3nc4cc(F)c(F)cc4[nH]3)c(C(F)(F)F)n2)CC1 [Example 31, [5-(5,6-Difluoro-1H-benzoimidazol-2-yl)-4-trifluoromethyl-pyrimidin-2-yl]-[3-(1-methyl-piperidin-4-yl)-propyl]-amine]	230 nM
CC(C)c1nc(NCCCC2CCN(C)CC2)ncc1-c1nc2c(F)c(F)ccc2[nH]1 [Example 32, [5-(4,5-Difluoro-1H-benzoimidazol-2-yl)-4-isopropyl-pyrimidin-2-yl]-[3-(1-methyl-piperidin-4-yl)-propyl]-amine]	6110 nM
Cc1c(F)ccc2[nH]c(-c3cnc(NCCCC4CCN(C)CC4)cn3)nc12 [Example 33, [5-(5-Fluoro-4-methyl-1H-benzoimidazol-2-yl)-pyrazin-2-yl]-[3-(1-methyl-piperidin-4-yl)-propyl]-amine]	250 nM
Cc1ccc2[nH]c(-c3cnc(NCCCC4CCN(C)CC4)cn3)nc2c1C [Example 34, [5-(4,5-Dimethyl-1H-benzoimidazol-2-yl)-pyrazin-2-yl]-[3-(1-methyl-piperidin-4-yl)-propyl]-amine]	680 nM
Cc1nc(NCCCC2CCN(C)CC2)ncc1-c1nc2c(C(F)(F)F)cc(C(F)(F)F)cc2[nH]1 [Example 35, [5-(4,6-Bis-trifluoromethyl-1H-benzoimidazol-2-yl)-4-methyl-pyrimidin-2-yl]-[3-(1-methyl-piperidin-4-yl)-propyl]-amine]	11 nM
Cc1nc(NCCCC2CCN(C)CC2)ncc1-c1nc2cc(C#N)ccc2[nH]1 [Example 36, 2-{4-Methyl-2-[3-(1-methyl-piperidin-4-yl)-propylamino]-pyrimidin-5-yl}-1H-benzoimidazole-5-carbonitrile]	170 nM

— patent publication US9365548B2, “Benzoimidazol-2-yl pyrimidines and pyrazines as modulators of the histamine H4 receptor” (Janssen Pharmaceutica NV, priority 2006, dated 2016)
